Patent US11667636B2, “Modulators of Mas-related G-protein receptor X2 and related products and methods” (Escient Pharmaceuticals, Inc., priority 2020, dated 2023)

What follows are compounds tested against T1, human MRGPRX2 (Homo sapiens, UniProt Q96LB1) (assay: MRGPRX2 Activity: IP-One HTRF antagonist assay in CHO cells stably expressing human MRGPRX2, versus Cortistatin-14). Settings: versus 0.3 uM Cortistatin-14 agonist, IP-1 HTRF, read-out: MRGPR2 Antagonist Activity.
T1 construct: expressed in transfected cells
T1 sequence (Q96LB1 1-330): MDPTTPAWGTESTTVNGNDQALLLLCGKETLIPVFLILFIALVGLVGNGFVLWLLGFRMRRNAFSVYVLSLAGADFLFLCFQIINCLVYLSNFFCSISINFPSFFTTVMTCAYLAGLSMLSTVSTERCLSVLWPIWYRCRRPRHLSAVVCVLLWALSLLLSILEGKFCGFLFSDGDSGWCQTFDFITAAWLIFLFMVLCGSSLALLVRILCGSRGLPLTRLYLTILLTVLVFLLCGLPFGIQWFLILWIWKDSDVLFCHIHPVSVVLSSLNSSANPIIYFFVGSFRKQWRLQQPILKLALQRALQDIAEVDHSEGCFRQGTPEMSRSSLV
Format: cell-based
Protocol: CHO cells stably transfected to express human MRGPRX2 were maintained in an incubator at 37° C. with 5% CO2 and grown in F12 (HAM) media with 10% fetal bovine serum (FBS), 1% Glutamax, 1% penicillin/streptomycin, 800 μg/mL Geneticin (G418), and 300 μg/mL Hygromycin B. Cells were plated in a 384-well assay plate at 20,000 cells per well in 12 μL of Opti-MEM and kept in an incubator overnight. On the day of the assay, compounds solubilized at 10 mM in DMSO were added as a 10-point curve (30 uM final top concentration with 1:3 serial dilutions) using a Tecan D300E digital dispenser. Agonists were diluted in assay buffer (final concentrations of 5.7 mM Tris-HCl, 43 mM NaCl, 50 mM LiCl, pH=8) and 2 μL of the agonist Cortistatin-14 (CPC Scientific, catalog CORT-002) are added to each well. Final concentrations of agonists were 0.3 μM Cortistatin-14. Final concentrations of DMSO were kept consistent across the plate. Plates were incubated in the dark for 1 hr at 37° C. and then for 1 hr at room temperature. IP-1 standards and HTRF detection reagents were added according to the IP-One-Gq Kit purchased from Cisbio (part number 62IPAPEJ) and incubated in the dark for 1 hr at room temperature. The plate was read on a Molecular Devices SpectraMax iD5 plate reader. The HTRF ratio was calculated from the raw data and graphed using GraphPad Prism to calculate an IC50 value for each compound.
The activity ranges are denoted as follows: “+++++” denotes antagonist activity <50 nM; “++++” denotes antagonist activity between 51 and 100 nM; “+++” denotes activity between 101 and 500 nM; “++” denotes activity between 501 and 1000 nM; and “+” denotes activity >1000 nM
CNc1ccc(C(=O)N[C@H]2CC[C@@H](Nc3cccc4nc(C(F)F)cn34)CC2)cc1 [2-195] showed an IC50 of less than 50 nM. O=C(N[C@H]1CC[C@@H](Nc2cccc3nc(C(F)(F)F)cn23)CC1)c1ccn(CC(F)F)n1 [2-135] showed an IC50 of less than 50 nM. With O=C(N[C@H]1CC[C@@H](Nc2cccc3nc(C(F)F)cn23)CC1)c1ccnc2cn[nH]c12 [2-253] the IC50 was less than 50 nM. In the case of CCOCc1cc2c(N[C@H]3CCC[C@@H](NC(=O)c4ccc(OC)cc4)C3)cccc2s1 [1-3], the IC50 is reported as greater than 1000 nM. O=C(N[C@H]1CC[C@@H](Nc2cccc3nc(C(F)F)cn23)CC1)c1nn2ccccc2c1NCC(F)F [2-269] gave an IC50 of 101 to 500 nM. Nc1nn(CC(F)F)cc1C(=O)N[C@H]1CC[C@@H](Nc2cccc3nc(C(F)(F)F)cn23)CC1 [Example 6, 3-amino-1-(2,2-difluoroethyl)-N-[4-[[2-(trifluoromethyl)imidazo[1,2-a]pyridin-5 yl]amino]cyclohexyl]pyrazole-4-carboxamide] was tested, and the IC50 was less than 50 nM. O=C(N[C@H]1CC[C@@H](Nc2cccc3nc(C(F)(F)F)cn23)CC1)c1cn(CC(F)F)nc1Cl [Example 11, 3-chloro-1-(2,2-difluoroethyl)-N-((1 s,4s)-4-((2-(trifluoromethyl)imidazo[1,2-a]pyridin-5-yl)amino)cyclohexyl)-1H-pyrazole-4-carboxamide] was tested, and the IC50 was less than 50 nM. O=C(N[C@H]1CC[C@@H](Nc2cccc3nc(C(F)(F)F)cn23)CC1)c1c[nH]c2ccccc12 [2-201] gave an IC50 of less than 50 nM. In the case of O=C(N[C@H]1CC[C@@H](Nc2cccc3nc(C(F)(F)F)cn23)CC1)c1ccc(N2CCOCC2)cc1 [2-8], the IC50 is reported as less than 50 nM. In the case of O=C(N[C@H]1CC[C@@H](Nc2cccc3nc(C(F)(F)F)cn23)CC1)c1c[nH]nc1C1CC1 [2-141], the IC50 is reported as less than 50 nM. CC(=O)c1cc2c(N[C@H]3CC[C@@H](NC(=O)c4ccc(F)cc4)CC3)cccc2s1 [1-5] was tested, and the IC50 was 101 to 500 nM. With CCn1ncc(C(=O)N[C@H]2CC[C@@H](Nc3cccc4nc(C(F)(F)F)cn34)CC2)c1Cl [2-292] the IC50 was 101 to 500 nM. For CC(=O)Nc1cccc(C(=O)N[C@H]2CC[C@@H](Nc3cccc4sc(C(F)(F)F)cc34)CC2)c1 [2-2], the IC50 was greater than 1000 nM. In the case of CC(C)S(=O)(=O)Nc1ccc(C(=O)N[C@H]2CC[C@@H](Nc3cccc4nc(C(F)(F)F)cn34)CC2)cc1 [2-203], the IC50 is reported as less than 50 nM. CN(C)c1ccc(C(=O)N[C@H]2CC[C@@H](Nc3cccc4nc(C#N)cn34)CC2)cc1 [2-258] showed an IC50 of less than 50 nM. CN(CC(F)F)c1cccc(C(=O)N[C@H]2CC[C@@H](Nc3cccc4nc(C(F)(F)F)cn34)CC2)c1 [2-14] was tested, and the IC50 was 51 to 100 nM. With Cn1cc(C(=O)N[C@H]2CC[C@@H](Nc3cccc4nc(C(F)F)cn34)CC2)c(C(F)F)n1 [2-286] the IC50 was 101 to 500 nM. In the case of O=C(N[C@H]1CC[C@@H](Nc2cccc3nc(C(F)(F)F)cn23)CC1)c1noc2ccccc12 [2-290], the IC50 is reported as 101 to 500 nM. CCCn1cc(C(=O)N[C@H]2CC[C@@H](Nc3cccc4nc(C(F)F)cn34)CC2)cn1 [2-255] gave an IC50 of 101 to 500 nM. With COc1ccc(C(=O)N[C@H]2CC[C@@H](Nc3cccc4sc(C(F)(F)F)nc34)CC2)cc1 [1-17] the IC50 was greater than 1000 nM. Work on O=C(N[C@H]1CC[C@@H](Nc2cccc3nc(C(F)(F)F)cn23)CC1)c1cccc2[nH]ccc12 [2-232] yielded an IC50 of less than 50 nM. Work on O=C(N[C@H]1CC[C@@H](Nc2cccc3nc(C(F)F)cn23)CC1)c1c[nH]nc1NCC(F)F [2-194] yielded an IC50 of less than 50 nM. Cc1n[nH]cc1C(=O)N[C@H]1CC[C@@H](Nc2cccc3nc(C(F)(F)F)cn23)CC1 [2-138] was tested, and the IC50 was less than 50 nM. CC(C)(O)Cn1cc(C(=O)N[C@H]2CC[C@@H](Nc3cccc4nc(C(F)F)cn34)CC2)c(Cl)n1 [2-283] gave an IC50 of 101 to 500 nM. O=C(N[C@H]1CC[C@@H](Nc2cccc3nc(C(F)(F)F)cn23)CC1)c1ccn2ccnc2c1 [2-208] gave an IC50 of 51 to 100 nM. For CCc1cc(C(=O)N[C@H]2CC[C@@H](Nc3cccc4nc(C(F)(F)F)cn34)CC2)nn1CC [2-190], the IC50 was 101 to 500 nM. With O=C(N[C@H]1CC[C@@H](Nc2cccc3nc(C(F)F)cn23)CC1)c1ccc(F)nc1 [2-254] the IC50 was 101 to 500 nM. O=C(N[C@H]1CC[C@@H](Nc2cccc3nc(C(F)(F)F)sc23)CC1)c1ccc(F)cc1 [1-19] gave an IC50 of 51 to 100 nM. In the case of COc1ccc(C(=O)N[C@@H]2CCC[C@H](Nc3cccc4sc(C(C)=O)cc34)C2)cc1 [1-4], the IC50 is reported as greater than 1000 nM. O=C(N[C@H]1CC[C@@H](Nc2cccc3nc(C(F)(F)F)cn23)CC1)c1cn(CC(F)(F)F)nc1C(F)F [Example 9, 3-(difluoromethyl)-1-(2,2,2-trifluoroethyl)-N-[4-[[2-(trifluoromethyl)imidazo[1,2-a]pyridin-5-yl]amino]cyclohexyl]pyrazole-4-carboxamide] was tested, and the IC50 was less than 50 nM. With COc1ccc(C(=O)N[C@@H]2CCC[C@H](Nc3cccc4sc(OC)cc34)C2)cc1 [1-14] the IC50 was greater than 1000 nM. COc1ccc(C(=O)N[C@@H]2CCC[C@H](Nc3cccc4sc(C(F)(F)F)cc34)C2)cc1 [Example 2, 4-methoxy-N-((1R,3S)-3-((2-(trifluoromethyl)benzo[b]thiophen-4-yl)amino)cyclohexyl)benzamide] was tested, and the IC50 was 101 to 500 nM. O=C(N[C@H]1CC[C@@H](Nc2cccc3nc(C(F)(F)F)cn23)CC1)c1cnn(CC(F)F)c1C(F)F [2-284] gave an IC50 of 101 to 500 nM. With COc1ccc(C(=O)N[C@@H]2CCC[C@H](Nc3cccc4sc(C#N)cc34)C2)cc1 [1-16] the IC50 was 101 to 500 nM. In the case of CCOc1cc(C(=O)N[C@H]2CC[C@@H](Nc3cccc4nc(C(F)(F)F)cn34)CC2)ccn1 [2-15], the IC50 is reported as 101 to 500 nM. Compound O=C(N[C@H]1CC[C@@H](Nc2cccc3nc(C(F)F)cn23)CC1)c1cn(C(F)F)nc1C(F)F [2-220] has an IC50 of less than 50 nM. O=C(N[C@H]1CC[C@@H](Nc2cccc3nc(C(F)(F)F)cn23)CC1)c1ccc(C(F)F)cc1 [2-179] showed an IC50 of less than 50 nM. In the case of N#Cc1nn(C(F)F)cc1C(=O)N[C@H]1CC[C@@H](Nc2cccc3nc(C(F)(F)F)cn23)CC1 [2-229], the IC50 is reported as less than 50 nM. O=C(N[C@H]1CC[C@@H](Nc2cccc3nc(C(F)(F)F)cn23)CC1)c1ccc(-n2cnnn2)cc1 [2-202] gave an IC50 of less than 50 nM. In the case of CCn1nccc1C(=O)N[C@H]1CC[C@@H](Nc2cccc3sc(C(F)(F)F)cc23)CC1 [2-3], the IC50 is reported as 101 to 500 nM. Work on O=C(N[C@H]1CC[C@@H](Nc2cccc3nc(C(F)(F)F)cn23)CC1)c1ccccc1NCC(F)F [2-188] yielded an IC50 of less than 50 nM. Cc1ncc(C(=O)N[C@H]2CC[C@@H](Nc3cccc4nc(C(F)(F)F)cn34)CC2)n1C [2-134] was tested, and the IC50 was 101 to 500 nM. With COc1ccc(C(=O)N[C@@H]2CCC[C@H](Nc3cc(Cl)cc4nc(C(F)(F)F)cn34)C2)cc1 [1-30] the IC50 was 51 to 100 nM. CN(C)c1ccc(C(=O)N[C@H]2CC[C@@H](Nc3cccc4nc(C(F)(F)F)cn34)CC2)cc1 [2-158] gave an IC50 of less than 50 nM. Compound CNc1ccccc1C(=O)N[C@H]1CC[C@@H](Nc2cccc3nc(C(F)F)cn23)CC1 [2-276] has an IC50 of 51 to 100 nM. In the case of Cn1ncc(C(=O)N[C@H]2CC[C@@H](Nc3cccc4nc(C(F)(F)F)cn34)CC2)c1C1CC1 [2-245], the IC50 is reported as 101 to 500 nM. O=C(N[C@H]1CC[C@@H](Nc2cccc3sc(C(F)(F)F)cc23)CC1)c1cc2ccccn2n1 [2-1] gave an IC50 of 51 to 100 nM. O=C(N[C@H]1CC[C@@H](Nc2cccc3nc(C(F)F)cn23)CC1)c1ccc(F)cc1Cl [2-149] was tested, and the IC50 was 101 to 500 nM. Compound O=C(N[C@H]1CC[C@@H](Nc2cccc3nc(C(F)F)cn23)CC1)c1ccc(Cl)cc1Cl [2-275] has an IC50 of 101 to 500 nM. In the case of O=C(N[C@H]1CC[C@@H](Nc2cccc3nc(C(F)(F)F)cn23)CC1)c1ccc(NCC(F)(F)F)cc1 [2-23], the IC50 is reported as less than 50 nM. CC(C)Oc1ccc(C(=O)N[C@H]2CC[C@@H](Nc3cccc4nc(C(F)(F)F)cn34)CC2)cc1Cl [2-207] was tested, and the IC50 was 101 to 500 nM. O=C(N[C@H]1CC[C@@H](Nc2cccc3nc(C(F)(F)F)cn23)CC1)c1c[nH]nc1C(F)(F)F [2-177] was tested, and the IC50 was less than 50 nM. With COc1ccc(C(=O)N[C@H]2CC[C@@H](Nc3cccc4nn(C(F)(F)F)cc34)CC2)cc1 [1-21] the IC50 was 51 to 100 nM. Work on CNc1ccc(C(=O)N[C@H]2CC[C@@H](Nc3cccc4nc(C#N)cn34)CC2)cc1 [2-259] yielded an IC50 of 101 to 500 nM. Cn1cc(C(=O)N[C@H]2CC[C@@H](Nc3cccc4nc(C(F)(F)F)cn34)CC2)c(N)n1 [2-246] was tested, and the IC50 was less than 50 nM. Work on O=C(N[C@H]1CC[C@@H](Nc2cccc3nc(C(F)(F)F)cn23)CC1)c1cn(C(F)F)nc1Cl [2-297] yielded an IC50 of less than 50 nM. With O=C(N[C@H]1CC[C@@H](Nc2cccc3nc(C(F)(F)F)cn23)CC1)c1ccnc2[nH]ccc12 [2-168] the IC50 was less than 50 nM. For O=C(N[C@H]1CC[C@@H](Nc2cccc3nc(C(F)(F)F)cn23)CC1)c1cnc2nccn2c1 [2-125], the IC50 was 101 to 500 nM. For COc1cccc2cc(C(=O)N[C@H]3CC[C@@H](Nc4cccc5nc(C(F)(F)F)cn45)CC3)oc12 [2-166], the IC50 was 51 to 100 nM.
